PubChem BioAssay (NCI)
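GI50 = concentration required for 50% inhibition of growth. At the TGI there is no net growth.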

Assays:
Assay in all cases: DTP human tumour cell line panel, 384-well format
SF-268 CNS = tested on: SF-268 CNS
HCT-116 colon = tested on: HCT-116 colon
ACHN renal = tested on: ACHN renal
NCI-H226 lung = tested on: NCI-H226 lung
RXF 393 renal = tested on: RXF 393 renal
HOP-92 NSCLC = tested on: HOP-92 NSCLC
SF-539 CNS = tested on: SF-539 CNS
MALME-3M melanoma = tested on: MALME-3M melanoma
EKVX NSCLC = tested on: EKVX NSCLC
KM12 colon = tested on: KM12 colon
MCF7 breast = tested on: MCF7 breast
SNB-19 CNS = tested on: SNB-19 CNS
A549 NSCLC = tested on: A549 NSCLC
OVCAR-8 ovarian = tested on: OVCAR-8 ovarian
UACC-62 melanoma = tested on: UACC-62 melanoma
SF-295 CNS = tested on: SF-295 CNS
COLO 205 colon = tested on: COLO 205 colon
SNB-75 CNS = tested on: SNB-75 CNS
IGROV1 ovarian = tested on: IGROV1 ovarian
DU-145 prostate = tested on: DU-145 prostate
NCI-H322M lung = tested on: NCI-H322M lung
M14 melanoma = tested on: M14 melanoma
CAKI-1 renal = tested on: CAKI-1 renal
OVCAR-4 ovarian = tested on: OVCAR-4 ovarian
NCI/ADR-RES ovarian = tested on: NCI/ADR-RES ovarian
MDA-MB-231 breast = tested on: MDA-MB-231 breast
T-47D breast = tested on: T-47D breast
SN12C renal = tested on: SN12C renal
HOP-62 NSCLC = tested on: HOP-62 NSCLC
TK-10 renal = tested on: TK-10 renal
NCI-H522 lung = tested on: NCI-H522 lung
SW-620 colon = tested on: SW-620 colon
RPMI-8226 leukemia = tested on: RPMI-8226 leukemia
UACC-257 melanoma = tested on: UACC-257 melanoma
NCI-H23 lung = tested on: NCI-H23 lung
HCT-15 colon = tested on: HCT-15 colon
BT-549 breast = tested on: BT-549 breast
OVCAR-3 ovarian = tested on: OVCAR-3 ovarian
UO-31 renal = tested on: UO-31 renal
A498 renal = tested on: A498 renal
PC-3 prostate = tested on: PC-3 prostate
CCRF-CEM leukemia = tested on: CCRF-CEM leukemia
K-562 leukemia = tested on: K-562 leukemia
HCC-2998 colon = tested on: HCC-2998 colon
SK-OV-3 ovarian = tested on: SK-OV-3 ovarian
NCI-H460 NSCLC = tested on: NCI-H460 NSCLC
U251 glioblastoma = tested on: U251 glioblastoma
786-0 renal = tested on: 786-0 renal
MDA-MB-468 breast = tested on: MDA-MB-468 breast
HL-60(TB) leukemia = tested on: HL-60(TB) leukemia
HT29 colon = tested on: HT29 colon
SK-MEL-28 melanoma = tested on: SK-MEL-28 melanoma
MDA-MB-435 melanoma = tested on: MDA-MB-435 melanoma
HS 578T breast = tested on: HS 578T breast
LOX IMVI melanoma = tested on: LOX IMVI melanoma
SK-MEL-5 melanoma = tested on: SK-MEL-5 melanoma
MOLT-4 leukemia = tested on: MOLT-4 leukemia

Cc1cnc(NC(=O)Nc2cc(Br)c(C)cc2OC[C@@H]2CNCCO2)cn1
GI50 (SF-268 CNS): 0.368 µM | TGI (SF-268 CNS): 2.94 µM | GI50 (HCT-116 colon): 0.977 µM | TGI (HCT-116 colon): 2.3 µM | GI50 (ACHN renal): 0.0585 µM | TGI (ACHN renal): 0.254 µM | GI50 (NCI-H226 lung): 5.04 µM | TGI (NCI-H226 lung): 18.1 µM | GI50 (RXF 393 renal): 0.0363 µM | TGI (RXF 393 renal): 0.165 µM | GI50 (HOP-92 NSCLC): 0.106 µM | TGI (HOP-92 NSCLC): 0.851 µM | GI50 (SF-539 CNS): 0.0543 µM | TGI (SF-539 CNS): 0.201 µM | GI50 (MALME-3M melanoma): 0.135 µM | TGI (MALME-3M melanoma): 1.34 µM | GI50 (EKVX NSCLC): 0.436 µM | TGI (EKVX NSCLC): 11.4 µM | GI50 (KM12 colon): 0.0723 µM | TGI (KM12 colon): 0.51 µM | GI50 (MCF7 breast): 0.0563 µM | TGI (MCF7 breast): 1.68 µM | GI50 (SNB-19 CNS): 0.482 µM | TGI (SNB-19 CNS): 4.85 µM | GI50 (A549 NSCLC): 0.706 µM | TGI (A549 NSCLC): 14.3 µM | GI50 (OVCAR-8 ovarian): 0.153 µM | TGI (OVCAR-8 ovarian): 0.443 µM | GI50 (UACC-62 melanoma): 0.284 µM | TGI (UACC-62 melanoma): 1.64 µM | GI50 (SF-295 CNS): 0.0422 µM | TGI (SF-295 CNS): 0.21 µM | GI50 (COLO 205 colon): 1.69 µM | TGI (COLO 205 colon): 4.72 µM | GI50 (SNB-75 CNS): 0.369 µM | TGI (SNB-75 CNS): 2.95 µM | GI50 (IGROV1 ovarian): 0.354 µM | TGI (IGROV1 ovarian): 12.2 µM | GI50 (DU-145 prostate): 0.347 µM | TGI (DU-145 prostate): 1.49 µM | GI50 (NCI-H322M lung): 0.195 µM | TGI (NCI-H322M lung): 1.83 µM | GI50 (M14 melanoma): 0.0271 µM | TGI (M14 melanoma): 0.0833 µM | GI50 (CAKI-1 renal): 0.469 µM | TGI (CAKI-1 renal): 2.86 µM | GI50 (OVCAR-4 ovarian): 0.163 µM | TGI (OVCAR-4 ovarian): 1.39 µM | GI50 (NCI/ADR-RES ovarian): 0.254 µM | TGI (NCI/ADR-RES ovarian): 0.701 µM | GI50 (MDA-MB-231 breast): 0.608 µM | TGI (MDA-MB-231 breast): 6.18 µM | GI50 (T-47D breast): 1.86 µM | TGI (T-47D breast): 3.63 µM | GI50 (SN12C renal): 1.8 µM | TGI (SN12C renal): 6.09 µM | GI50 (HOP-62 NSCLC): 0.143 µM | TGI (HOP-62 NSCLC): 0.512 µM | GI50 (TK-10 renal): 0.106 µM | TGI (TK-10 renal): 0.366 µM | GI50 (NCI-H522 lung): 1.94 µM | TGI (NCI-H522 lung): 5.84 µM | GI50 (SW-620 colon): 0.693 µM | TGI (SW-620 colon): 2.05 µM | GI50 (RPMI-8226 leukemia): 0.146 µM | TGI (RPMI-8226 leukemia): 0.317 µM | GI50 (UACC-257 melanoma): 1.42 µM | TGI (UACC-257 melanoma): 2.73 µM | GI50 (NCI-H23 lung): 0.056 µM | TGI (NCI-H23 lung): 0.244 µM | GI50 (HCT-15 colon): 0.303 µM | TGI (HCT-15 colon): 1.13 µM | GI50 (BT-549 breast): 0.0849 µM | TGI (BT-549 breast): 0.258 µM | GI50 (OVCAR-3 ovarian): 0.188 µM | TGI (OVCAR-3 ovarian): 0.781 µM | GI50 (UO-31 renal): 0.264 µM | TGI (UO-31 renal): 1.85 µM | GI50 (A498 renal): 0.0255 µM | TGI (A498 renal): 0.0818 µM | GI50 (PC-3 prostate): 1.24 µM | TGI (PC-3 prostate): 14.2 µM | GI50 (CCRF-CEM leukemia): 0.1 µM | TGI (CCRF-CEM leukemia): 0.219 µM | GI50 (K-562 leukemia): 0.157 µM | TGI (K-562 leukemia): 0.323 µM | GI50 (HCC-2998 colon): 0.0414 µM | TGI (HCC-2998 colon): 0.18 µM | GI50 (SK-OV-3 ovarian): 0.157 µM | TGI (SK-OV-3 ovarian): 0.412 µM | GI50 (NCI-H460 NSCLC): 0.29 µM | TGI (NCI-H460 NSCLC): 1.43 µM | GI50 (U251 glioblastoma): 0.497 µM | TGI (U251 glioblastoma): 1.73 µM | GI50 ([…]-0 renal): 0.101 µM | TGI (786-0 renal): 0.427 µM | GI50 (MDA-MB-468 breast): 0.485 µM | TGI (MDA-MB-468 breast): 2.66 µM | GI50 (HL-60(TB) leukemia): 0.0478 µM | TGI (HL-60(TB) leukemia): 0.174 µM | GI50 (HT29 colon): 0.326 µM | TGI (HT29 colon): 1.12 µM | GI50 (SK-MEL-28 melanoma): 1.05 µM | TGI (SK-MEL-28 melanoma): 2.23 µM | GI50 (MDA-MB-435 melanoma): 0.194 µM | TGI (MDA-MB-435 melanoma): 0.389 µM | GI50 (HS 578T breast): 0.0528 µM | TGI (HS 578T breast): 0.245 µM | GI50 (LOX IMVI melanoma): 1.14 µM | TGI (LOX IMVI melanoma): 2.39 µM | GI50 (SK-MEL-5 melanoma): 0.329 µM | TGI (SK-MEL-5 melanoma): 1.35 µM | GI50 (MOLT-4 leukemia): 0.131 µM | TGI (MOLT-4 leukemia): 0.262 µM
